Patent US12433865B2, “Compositions comprising PGI2-receptor agonists and processes for the preparation thereof” (Arena Pharmaceuticals, Inc., priority 2018, dated 2025)

Columns and labels:
[1] = Open-label multiple-dose escalation pharmacokinetic study in fasted or fed healthy subjects (Example 7 B); assay type: in vivo, human
Procedure: B. A second open-label, non-randomized pharmacokinetic study was conducted in healthy subjects. Fasted (cohort 1; n=19) or fed state (cohort 2, n=18) subjects received a modified-release tablet formulation of Compound 1 in a dose escalation sequence over 25 days ([…], depending upon individual subject tolerability, […]).
Two cohorts were enrolled to ensure data in 12 evaluable subjects per cohort. […]

PAH patients = experiment: 22-week randomized, double-blind, placebo-controlled study (Example 8); assay type: in vivo, human
Procedure: A 22-week randomized, double-blind, placebo-controlled study with a dose titration period of up to 9 weeks was conducted. Sixty-one patients were randomized 2:1 Compound 1 to placebo. Right Heart Catheterization (RHC) measurements were obtained prior to study Day 1 of the dose titration period and at Week 22. The following values were obtained and recorded: pulmonary artery pressure (PAP) (systolic, diastolic, and mean), heart rate (HR), right atrial pressure (RAP), pulmonary capillary wedge pressure (PCWP) right ventricular pressure (RVP) and cardiac output (CO), pulmonary vascular resistance (PVR), arterial and mixed venous oxygen saturation […] (if applicable). Systemic vascular resistance (SVR) was estimated from blood pressure measurements. The 6-minute walk test (6MWD) was conducted according to the modified guidelines issued by the American Thoracic Society. See Am J Respir Crit Care Med 166:111-117, 2002.
Primary efficacy endpoints for the study were: a) change from baseline in PVR after 22 weeks of treatment, and b) change from baseline in 6MWD after 22 weeks of treatment.
Compound 1 was administered as a capsule in 0.01, 0.02, 0.03, 0.04, and 0.10 mg dose strengths. The formulation was supplied as a liquid-filled, size 4, hard-gelatin capsule containing Compound 1, polyoxyl 40 hydrogenated castor oil (Kolliphor® RH40) NF, butylated hydroxytoluene (BHT)NF, and colloidal silicon dioxide NF.
The starting dose of Compound 1 was 0.01 mg twice daily. The dose of Compound 1 was titrated according to patient tolerability. If the initial dose was tolerated (0.01 mg twice daily), then the dose was increased once a week in the following fashion: 0.02 mg twice daily, 0.03 mg twice daily, 0.04 mg twice daily, 0.06 mg twice daily, 0.08 mg, 0.1 mg twice daily, 0.2 mg twice daily and 0.3 mg twice daily. The dose was optionally escalated to a possible maximum total daily dose of 0.6 mg (0.3 mg twice daily), pending tolerability. […] Compound 1 daily maintenance doses were titrated as high as 0.6 mg, and the most common dose was 0.4 mg.
Subjects received concomitant oral disease-specific PAH therapy only if the dose remained stable for at least 3 months prior to the start of screening. This therapy consisted of the following: ERA and/or an agent acting on the NO pathway including the following: a PDE-5 inhibitor and a sGC stimulator. Subjects were instructed to continue the same dose and regimen of these medications for the duration of the study.

Plasma half-life = assay type: in vivo
[2] = modified-release tablet once daily

accumulation index (AUC(0-24)) ([1]; 5 days of dosing at 0.60 mg, both fed and fasted state): approximately 2.1 fold
exposure in fed vs fasted state ([1]; after single administration and at steady state): similar
differences in AUC(0-24) at steady state, female vs male subjects [1, 2]: did not indicate a significant increase
increase of Cmax at steady state in female vs male subjects [1, 2]: greater than 42%
mean plasma exposure measures in females compared to males [1, 2]: Somewhat higher
plasma exposure measures vs dose ([1]; modified-release tablet once daily, 0.06 to 0.3 mg): Dose-dependent
peak-trough fluctuation ([1]; modified-release tablet once daily, across dose levels): low
effect of food on plasma exposure ([1]; modified-release tablet once daily, fed vs fasted, across dose levels): little effect of food
Tmax in the fed state ([1]; modified-release tablet, fed vs fasted): delayed
mean pre-dose and 4 hours post-dose plasma concentrations (PAH patients; during the 9-week dose titration period (FIG. 15)): continued to rise
mean steady-state pre-dose and 4-hours post-dose plasma concentrations (PAH patients; throughout the 13-week maintenance period (FIG. 15)): maintained
half-life (Plasma half-life): ~1440 min
SMILES: O=C(O)COC[C@H]1CC[C@H](COC(=O)N(c2ccccc2)c2ccc(Cl)cc2)CC1 [Compound 1, 2-(((1r,4r)-4-(((4-chlorophenyl)(phenyl)carbamoyloxy)methyl)cyclohexyl)methoxy)acetic acid]
correlation between plasma levels and improvements in PVR (PAH patients; 22-week study period, p=0.004 (FIG. 17)): significant correlation
increase of least-squares mean 6MWD (PAH patients; 22 weeks, not significantly different from placebo): 36.2 m
adverse events (PAH patients; PAH patients, 22-week study): consistent with other prostacyclin treatments for the management of PAH
mean reduction in BNP from baseline to Week 22 versus placebo (PAH patients; difference not significantly different): numerically greater
decrease of PVR from baseline to Week 22 (PAH patients; immediate-release capsule twice daily, titrated up to 0.6 mg total daily dose, p=0.02 vs placebo): 163.9 dyn·s·cm^−5
correlation between PVR percentage change and dose (PAH patients; in vivo): no significant correlation
correlation between plasma levels and improvements in 6MWD (PAH patients; p=0.0037 (FIG. 18)): significant correlation
correlation between plasma levels and improvements in BNP (PAH patients; p=0.047 (FIG. 19)): significant correlation
